“Also recorded” adds a separate entry of the source. Where no end group is shown, it is not given here.
Legend:
CD4+ T-cells (PBMCs) = assay: In vitro peptide stimulation and T-cell proliferation assay, CD4+; format: cell-based, human; settings: Type 1 diabetes (N = 18)
Outline: (§1)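 CellTrace Violet-labelled fresh PBMCs from type 1 diabetic and healthy donors cultured 7 days in 5% autologous plasma with or without 20 μg/ml insulin peptides. Proliferation measured by flow cytometry as dye dilution within the CD4+ or CD8+ subset. Stimulation index = % proliferation stimulated/% unstimulated.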

[1] = tested on: autoantibodies to oxPTM-INS; assay: Competitive displacement ELISA, plate coated with oxidised insulin; format: binding, human
Method: A competitive displacement assay was performed to map the exact epitope, namely the exact amino acid sequence binding specificities and to test the binding to native peptides versus oxidised insulin peptides. The binding to the peptide was done by direct ELISA on the native or modified peptides or by competition ELISA. Initially native synthetic peptide was oxidised by exposing to 0.05 mM CuCl2; 90 mM H2O2; 10 mM NaOCl. Native and modified peptides were fractionated by AKTA to evaluated changes in molecular profile. AKTA fractions were then tested by ELISA for reactivity (FIGS. 2 and 3). We next perform competition ELISA with the native peptides and peptides exposed to 0.05 mM CuCl2; 90 mM H2O2; 10 mM NaOCl. Serum samples were pre-incubated with either native insulin peptides or oxidised insulin peptides. Finally, based on the amino acid sequence of the identified peptides we predicted the amino acids that would be oxidised by ^●OH and HOCl and designed synthetic peptides that contain the oxidised amino acids in the synthesis. Synthetic peptides were produced by standard commercially available methods, specifically by Peptide Protein Research Ltd. Briefly, peptide synthesis was performed by automated solid phase peptide synthesis (SPPS), which was followed by purification. Each individual amino acid was added to the growing chain according to the sequence. Where specified, dihydroxyphenylalanine was added to replace Tyr or cysteate were added to replace Cys. Similarly, these peptides were tested by competition ELISA. The table below describe the different competition ELISA performed:
Serum samples from children with type 1 diabetes were pre-incubated with the synthetic peptides before they were added to the native insulin or oxidised that were previously coated on the ELISA plate. If the antibodies in the serum sample bind to the peptide they will no longer bind to the insulin or oxidised insulin on the plate-competition ELISA. 1:200 dilutions of serum samples from T1D serum samples were pre-incubated for 2 hr at room temperature with the various peptides as shown in the table above. After incubation, serum/peptide mix was added to the ELISA plate previously coated overnight with either native insulin or oxidised insulin for an additional 2 hr incubation. Plates were then washed in a plate washer three times with PBS 0.05% tween. After washing, 100 ul of anti-human IgG diluted 1:1000 in 1% milk-PBS 0.05% tween were added for additional 1 hour and 30 min incubation. After washing, ELISA was developed by adding 100 ul of TMB (10 mg/ml in DMSO) in 10 ml of 0.1 M sodium acetate plus 2 ul of H2O2. Reaction was stopped by adding 0.5 M H2SO4 (usually 20 min for insulin ELISA).
To assess the binding specificity of serum samples to identified peptides, a competitive ELISA was performed. The ELISA was carried out following the method described above, except that the serum samples were pre-incubated for 2 h with and without 10 μg/ml peptides as competitors, before adding the serum samples to the insulin coated ELISA plate.

[2] = tested on: CD4+ and CD8+ T-cells and IgG autoantibodies; assay: Overlap of CD4+, CD8+ and IgG antibody responses (Venn analysis); format: cell-based, human; settings: type 1 diabetes
Excerpt: FIG. 13. Venn diagrams of CD4^+, CD8^+ and antibody response to oxPTM-INSPs. Panels a, b, and c show the overlap between IgG autoantibody and T-cell (CD4^+ and CD8^+) responses specific to oxPTM-INSP-3 (a), Nt-INSP-4 (b) and oxPTM-INSP-6 (c). Panels d, e, and f display the overlap between T-cell responses to the three insulin peptides and IgG to oxPTM-INS modified by hydroxyl radical (^●OH-INS). […] There is concordance between reactivity to oxPTM-INS and CD4^+ and CD8^+ reactivity for all three tested peptides (7/17, 8/18 and 8/18 for oxPTM-INSP-3, Nt-INSP-4 and oxPTM-INSP-6, respectively). The stimulatory index >1 was used for definition of positive T-cell response.
Correlation between T-cell stimulation and antibody response. Subjects evaluated for T-cell stimulation were also tested for antibody reactivity to either oxPTM-INSPs or oxidised intact insulin (oxPTM-INS) to assess correlations between humoral and cellular responses (FIG. 11-e-f). In study cohort 2, antibody reactivity to oxPTM-INSP-6 was the highest as observed in the study cohort 1, with 11/18 (61.1%) binding to at least one oxPTM-INSP-6 derivatives (p<0.001 oxPTM-INSP-6 vs. Nt-INSP-6). Detailed analysis of autoantibody response in this cohort is described in the ESM (ESM results Antibody binding to oxPTM-INSPs in Study cohort 2).
We then analysed the extent of correlation between CD4^+, CD8^+ and IgG antibody responses. […] The CD4^+ T cell response to Nt-INSP-4 frequently overlapped with CD8^+ (13/18 [72.2%]), and to a lesser extent to antibodies (7/18 [38.8%]). […] CD4^+ response to oxPTM-INSP-6 was linked to both CD8^+ and/or antibodies: […] patients had concordant CD4^+ and CD8^+ responses, while 9/18 (50%) patients had concordant CD4^+ and antibody responses. […] CD4^+ T-cell stimulation to Nt-INSP-4, oxPTM-INSP-6 and oxPTM-INSP-3 was associated with antibody reactivity to oxPTM-INS in 8/18 (44.4%), 8/18 (44.4%) and 7/18 (38.9%) type 1 diabetes patients.

CD8+ T-cells (PBMCs) = assay: In vitro peptide stimulation and T-cell proliferation assay, CD8+; format: cell-based, human
Outline: as §1

[3] = biological target: Serum IgG autoantibodies of subjects with type 1 diabetes (human); assay: competitive ELISA, T1D serum pre-incubated with peptide, plate coated with oxidised insulin (FIG. 2B)
[4] = biological target: Serum IgG autoantibodies of subjects with type 1 diabetes (human); assay: competitive ELISA, T1D serum pre-incubated with peptide, plate coated with oxidised insulin (Example 3)
[5] = biological target: Serum IgG autoantibodies of subjects with type 1 diabetes (human); assay: competitive ELISA, T1D serum pre-incubated with peptide, plate coated with oxidised insulin (FIG. 2A)

reduced binding to oxidised whole insulin ([1]; type 1 diabetes sera pre-incubated with peptide) | % reduction of serum binding to oxidised whole insulin [3] [%] | % reduction of serum binding to oxidised whole insulin [4] [%] | % reduction of serum binding to oxidised whole insulin [5] [%] | Molecule | CD4+ T-cell response, subjects with SI > 3 (%) (CD4+ T-cells (PBMCs)) | inhibition of type 1 diabetes serum binding to oxPTM-INS (in words) ([1]; sera pre-incubated with peptide competitor) | concordance between reactivity to oxPTM-INS and CD4+ and CD8+ reactivity (patients/patients) ([2]; Study cohort 2) | patients with CD4+ T-cell stimulation associated with antibody reactivity to oxPTM-INS ([2]; Study cohort 2) [%] | patients with CD4+, CD8+ T-cells to the peptide and autoantibodies to oxPTM-INS simultaneously ([2]; Study cohort 2) [%] | patients with concordant CD4+ and antibody responses to the peptide ([2]; Study cohort 2) [%] | patients with concordant CD4+, CD8+ and IgG antibody response to the peptide ([2]; Study cohort 2) [%] | patients with overlapping (concordant) CD4+ and CD8+ responses to the peptide ([2]; Study cohort 2, SI >1) [%] | CD8+ T-cell response, subjects with SI > 1 (%) (CD8+ T-cells (PBMCs); Controls (N = 11)) | CD8+ T-cell response, subjects with SI > 1 (%) (CD8+ T-cells (PBMCs); Type 1 diabetes (N = 18))
35-75% | – | – | – | oxPTM-INSP-6: oxidised forms of insulin peptide 6 (B:21-30), in house oxidised or in silico derivatives (ERGFFYTPKT; not fully specified (N-terminus); also: oxidised forms, in house oxidised or in silico derivatives, modified residues not defined) | 66.7 | strongly inhibited binding to oxPTM-INS; also recorded: able to inhibit the binding | 8/18 | 44.4 | 33.3 | 50 | 44.4 | 72.2 | 27.3 | 72.2
– | 35 to 75 | 35 to 70 | – | ERGFFYTPKT (not fully specified (N-terminus); also: oxidised in house (CuCl2, H2O2, NaOCl), modified residues not defined) [oxPTM-INSP-6, peptide 6 oxidised in house (oxidant not specified at the place)] | – | – | – | – | – | – | – | – | – | –
– | – | 40 to 80 | 35 to 80 | SLYQLENYCN (not fully specified (N-terminus); also: oxidised in house (CuCl2, H2O2, NaOCl), modified residues not defined) [oxPTM-INSP-3, peptide 3 oxidised in house (oxidant not specified at the place)] | – | – | – | – | – | – | – | – | – | –

From US20260072027A1, “Peptides And Method” (Queen Mary University of London, priority 2022, published 2026)
